Columns and labels:
[1] = log P by HPLC on reversed phase columns (EEC directive 79/831 Annex V.A8); type: physicochemical; conditions: Table 1, formula (I); HPLC/LC-MS at pH 2.7, 0.1% formic acid in water / acetonitrile, gradient 10% to 95%
Uromyces appendiculatus = test: In vivo preventive test on Uromyces appendiculatus (bean rust); conditions: preventive spray, bean plants, grading 11 days after contamination
Description: In Vivo Preventive Test on Uromyces appendiculatus (Bean Rust) […] Bean plants (“Saxa” variety), sown in starter cups on a 50/50 peat soil-pozzolana substrate and grown at 24° C., are treated at the 2-leaf stage (9 cm height) by spraying with the active ingredient prepared as described above. Plants, used as controls, are treated with the mixture of acetone/tween/DMSO/water not containing the active material. After 24 hours, the plants are contaminated by spraying the leaves with an aqueous suspension of Uromyces appendiculatus spores (150 000 spores per ml). The spores are collected from infected plants and are suspended in water containing 2.5 ml/1 of Tween 80 at 10%. The contaminated bean plants are incubated for 24 hours at 20° C. and at 100% relative humidity, and then for 10 days at 20° C. and at 70-80% relative humidity. Grading (% of efficacy) is carried out 11 days after the contamination, in comparison with the control plants.

Botrytis cinerea = test: In vivo preventive test on Botrytis cinerea (grey mould), gherkin plants; conditions: gherkin, spray, graded 4 to 5 days after contamination vs control plants
Description: In Vivo Preventive Test on Botrytis cinerea (Grey Mould)
(§1) The active ingredients tested are prepared by homogenization in a mixture of acetone/tween/DMSO and then diluted with water to obtain the desired active material concentration.
(§2) Gherkin plants (“Vert petit de Paris” variety), sown in starter cups on a 50/50 peat soil-pozzolana substrate and grown at 24° C., are treated at the Z11 cotyledon stage by spraying with the active ingredient prepared as described above. Plants, used as controls, are treated with the mixture of acetone/tween/DMSO/water not containing the active material.
After 24 hours, the plants are contaminated by spraying the cotyledons with an aqueous suspension of cryopreserved Botrytis cinerea spores (50 000 spores per ml). The spores are suspended in a nutrient solution composed of 10 g/L of PDB, 50 g/L of D-Fructose, 2 g/L of NH4NO3 and 1 g/L of KH2PO4. The contaminated gherkin plants are incubated at 17° C. and at 90% relative humidity.
Grading (% of efficacy) is carried out 4 to 5 days after the contamination, in comparison with the control plants.

Puccinia recondita = test: In vivo preventive test on Puccinia recondita (brown rust on wheat); conditions: wheat, spray, graded 12 days after contamination vs control plants
Description: In Vivo Preventive Test on Puccinia recondita (Brown Rust on Wheat) […] Wheat plants (“Scipion” variety), sown in starter cups on a 50/50 peat soil-pozzolana substrate and grown at 22° C., are treated at the 1-leaf stage (10 cm height) by spraying with the active ingredient prepared as described above. Plants, used as controls, are treated with the mixture of acetone/tween/DMSO/water not containing the active material. After 24 hours, the plants are contaminated by spraying the leaves with an aqueous suspension of Puccinia recondita spores (100 000 spores per ml). The spores are collected from an infected plant and are suspended in water containing 2.5 ml/1 of Tween 80 at 10%. The contaminated wheat plants are incubated for 24 hours at 20° C. and at 100% relative humidity, and then for 10 days at 20° C. and at 70-80% relative humidity. Grading (% of efficacy) is carried out 12 days after the contamination, in comparison with the control plants.

Pyrenophora teres = test: In vivo preventive test on Pyrenophora teres (net blotch on barley); conditions: barley, spray, graded 14 days after contamination vs control plants
Description: In Vivo Preventive Test on Pyrenophora teres (Net Blotch on Barley)
(§3) The active ingredients tested are prepared by homogenization in a mixture of acetone/tween/DMSO, and then diluted with water to obtain the desired active material concentration.
Barley plants (“Plaisant” variety), sown in starter cups on a 50/50 peat soil-pozzolana substrate and grown at 22° C., are treated at the 1-leaf stage (10 cm height) by spraying with the active ingredient prepared as described above. Plants, used as controls, are treated with the mixture of acetone/tween/DMSO/water not containing the active material.
After 24 hours, the plants are contaminated by spraying the leaves with an aqueous suspension of Pyrenophora teres spores (12 000 spores per ml). The spores are collected from a 12-day-old culture. The contaminated barley plants are incubated for 48 hours at 20° C. and at 100% relative humidity, and then for 12 days at 20° C. at 70-80% relative humidity.
Grading (% of efficacy) is carried out 14 days after the contamination, in comparison with the control plants. plants.

Septoria tritici = test: In vivo preventive test on Septoria tritici (leaf spot on wheat); conditions: preventive spray, wheat plants, grading 24 days after contamination
Description: In Vivo Preventive Test on Septoria tritici (Leaf Spot on Wheat)
as §3
Wheat plants (“Scipion” variety), sown in starter cups on a 50/50 peat soil-pozzolana substrate and grown at 22° C., are treated at the 1-leaf stage (10 cm height) by spraying with the active ingredient prepared as described above. Plants, used as controls, are treated with the mixture of acetone/tween/DMSO/water not containing the active material.
After 24 hours, the plants are contaminated by spraying the leaves with an aqueous suspension of cryopreserved Septoria tritici spores (500 000 spores per ml). The contaminated wheat plants are incubated for 72 hours at 18° C. and at 100% relative humidity, and then for 21 days at 90% relative humidity.
Grading (% of efficacy) is carried out 24 days after the contamination, in comparison with the control plants.

Alternaria brassicae = test: In vivo preventive test on Alternaria brassicae (leaf spot on radish); conditions: spray, graded 6 days after contamination vs control plants
Description: In Vivo Preventive Test on Alternaria brassicae (Leaf Spot on Radish)
as §3
Radish plants (“Pernod Clair” variety), sown in starter cups on a 50/50 peat soil-pozzolana substrate and grown at 17° C., are treated at the cotyledon stage by spraying with the active ingredient prepared as described above. Plants, used as controls, are treated with the mixture of acetone/tween/DMSO/water not containing the active material.
After 24 hours, the plants are contaminated by spraying the cotyledons with an aqueous suspension of Alternaria brassicae spores (50 000 spores per ml). The spores are collected from a 15-day-old culture. The contaminated radish plants are incubated at 20° C. and at 100% relative humidity.
Grading (% of efficacy) is carried out 6 days after the contamination, in comparison with the control plants.

Sphaerotheca fuliginea = test: In vivo preventive test on Sphaerotheca fuliginea (powdery mildew on cucurbits); conditions: preventive spray, gherkin plants, grading 12 days after contamination
Description: In Vivo Preventive Test on Sphaerotheca fuliginea (Powdery Mildew on Cucurbits)
as §1, §2
After 24 hours, the plants are contaminated by spraying the cotyledons with an aqueous suspension of Sphaerotheca fuliginea spores (100 000 spores per ml). The spores are collected from infected plants. The contaminated gherkin plants are incubated at about 20° C. and at 70-80% relative humidity.
Grading (% of efficacy) is carried out 12 days after the contamination, in comparison with the control plants.

| Compound | logP^[a] [1] | Eff. % (Uromyces appendiculatus; 500 ppm) | Eff. % (Botrytis cinerea; dose 500 ppm) | Eff. % (Puccinia recondita; dose 500 ppm) | Eff. % (Septoria tritici; 500 ppm) | Eff. % (Alternaria brassicae; dose 500 ppm) | Eff. % (Sphaerotheca fuliginea; 500 ppm) | Eff. % (Puccinia recondita; dose 100 ppm) | also measured |
| --- | --- | --- | --- | --- | --- | --- | --- | --- | --- |
| CC1c2c(NC(=O)c3cccnc3C(F)F)cccc2C(C)(C)C1C (stereo not shown) [Example 33] | 3.48^[a] | 100% | 97% | 100% | 100% | 100% | 100% |  |  |
| Cc1ccc(NC(=O)c2cccnc2C(F)F)c2c1C(C)(C)CC2C (stereo not shown) [Example 11] | 3.41^[a] |  | 99% | 98% |  |  |  |  |  |
| CCON=C1CC(C)c2c(NC(=O)c3cccnc3C(F)F)cccc21 (racemic) [Example 52] | 2.71^[a] | 93% |  |  | 86% | 86% |  |  | Eff. % (Pyrenophora teres; dose 500 ppm): 75% |
| CCC1(CC)OC(C)c2c(NC(=O)c3cccnc3C(F)F)cccc21 (racemic) [Example 25] | 2.86^[a] | 100% | 96% | 98% | 86% |  |  |  |  |
| CCC1(CC)CC(C)c2c(NC(=O)c3cc(C)cnc3C(F)F)cccc21 (racemic) [Example 79] | 4.31^[a] |  |  |  |  |  |  | 89% | Eff. % (Botrytis cinerea; dose 100 ppm): 80% |
| CC1CC(C)(C)c2c(F)ccc(NC(=O)c3cccnc3C(F)F)c21 (stereo not shown) [Example 2] | 3.35^[a] | 100% | 97% | 100% | 100% | 98% | 100% |  |  |
| CC1CC(CC(C)(C)C)c2cccc(NC(=S)c3cccnc3C(F)F)c21 (stereo not shown) [Example 59] | 4.87^[a] | 100% |  | 98% | 75% | 88% | 98% |  |  |
| CC1c2cccc(NC(=O)c3cccnc3C(F)F)c2CC1(C)C (stereo not shown) [Example 62] | 3.35^[a] | 100% |  | 100% | 100% | 100% | 98% |  |  |
| O=C(Nc1cccc2c1CCC21CC1)c1cccnc1C(F)F [Example 20] | 2.78^[a] | 100% | 90% | 94% |  |  |  |  |  |
| CCC1CC(C)c2c(NC(=O)c3cccnc3C(F)F)cccc21 (stereo not shown) [Example 88] | 3.37^[a] |  |  |  |  |  |  | 88% | Eff. % (Botrytis cinerea; dose 100 ppm): 89% |

Now from value to compound, other results behind:

| logP^[a] [1] | Compound | Eff. % (Uromyces appendiculatus; 500 ppm) | Eff. % (Botrytis cinerea; dose 500 ppm) | Eff. % (Puccinia recondita; dose 500 ppm) | Eff. % (Septoria tritici; 500 ppm) | Eff. % (Alternaria brassicae; dose 500 ppm) | Eff. % (Sphaerotheca fuliginea; 500 ppm) | Eff. % (Puccinia recondita; dose 100 ppm) | also measured |
| --- | --- | --- | --- | --- | --- | --- | --- | --- | --- |
| 3.79^[a] | CC1CC(C)(C)c2c(C3CC3)ccc(NC(=O)c3cccnc3C(F)F)c21 (stereo not shown) [Example 10] | 99% | 100% | 100% |  |  |  |  |  |
| 3.06^[a] | CC1Cc2c(NC(=O)c3cccnc3C(F)F)cccc2C1C (stereo not shown) [Example 36] | 100% |  | 98% |  |  |  |  | Eff. % (Pyrenophora teres; dose 500 ppm): 75% |
| 3.78^[a] | CC(C)(C)C1CCc2c(NC(=O)c3cccnc3C(F)F)cccc21 (racemic) [Example 39] | 100% |  | 98% | 86% |  | 94% |  | Eff. % (Pyrenophora teres; dose 500 ppm): 83% |
| 4.16^[a] | CCC1Cc2c(NC(=S)c3cccnc3C(F)F)cccc2C1(C)C (stereo not shown) [Example 69] |  |  |  |  |  |  | 100% | Eff. % (Uromyces appendiculatus; 100 ppm): 100%; Eff. % (Septoria tritici; 100 ppm): 80%; Eff. % (Pyrenophora teres; dose 100 ppm): 70%; Eff. % (Sphaerotheca fuliginea; 100 ppm): 100% |
| 3.18^[a] | CCCCON=C1CC(C)c2c(NC(=O)c3cccnc3C(F)F)cccc21 (racemic) [Example 51] | 70% |  | 75% |  | 93% |  |  | Eff. % (Pyrenophora teres; dose 500 ppm): 83% |
| 3.94^[a] | CCC1(C)CC(C)c2c(NC(=O)c3cc(C)cnc3C(F)F)cccc21 (mixture of isomers) [Example 82] |  |  |  |  |  |  | 94% | Eff. % (Uromyces appendiculatus; 100 ppm): 88%; Eff. % (Botrytis cinerea; dose 100 ppm): 80% |
| 4.01^[a] | CCC1(CC)CC(C)c2c(NC(=O)c3cccnc3C(F)F)cccc21 (racemic) [Example 78] |  |  |  |  |  |  | 100% | Eff. % (Uromyces appendiculatus; 100 ppm): 100%; Eff. % (Botrytis cinerea; dose 100 ppm): 98%; Eff. % (Alternaria brassicae; dose 100 ppm): 80%; Eff. % (Sphaerotheca fuliginea; 100 ppm): 98% |
| 3.29^[a] | CC1c2c(cccc2NC(=O)c2cccnc2C(F)F)CC1(C)C (stereo not shown) [Example 85] |  |  |  |  |  |  | 97% | Eff. % (Septoria tritici; 100 ppm): 79%; Eff. % (Botrytis cinerea; dose 100 ppm): 98%; Eff. % (Sphaerotheca fuliginea; 100 ppm): 100% |
| 3.00^[a] | CC1CC2(CC2)c2cccc(NC(=O)c3cccnc3C(F)F)c21 (racemic) [Example 42] | 100% | 99% | 100% | 79% | 83% | 89% |  |  |
| 2.39^[a] | CCC1OC(C)(C)c2cccc(NC(=O)c3cccnc3C(F)F)c21 (racemic) [Example 77] |  |  |  |  |  |  | 98% | Eff. % (Uromyces appendiculatus; 100 ppm): 100%; Eff. % (Septoria tritici; 100 ppm): 93%; Eff. % (Alternaria brassicae; dose 100 ppm): 75%; Eff. % (Sphaerotheca fuliginea; 100 ppm): 98% |
| 4.72^[a] | CCC1(CC)CC(C)c2c(NC(=O)c3ccc(Cl)nc3C(F)F)cccc21 (racemic) [Example 80] |  |  |  |  |  |  | 94% | Eff. % (Uromyces appendiculatus; 100 ppm): 91%; Eff. % (Botrytis cinerea; dose 100 ppm): 70% |
| 4.11^[a] | CCC1(CC)Cc2c(NC(=O)c3cccnc3C(F)F)cccc2C1C (racemic) [Example 60] | 100% |  | 98% | 100% | 100% | 100% |  |  |
